Test results reported in PubChem BioAssay (NCI).
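The compound was tested at five concentrations on cells cultured in 96-well plates, with a 48-hour exposure period. GI50 is the concentration that inhibits growth by half. The concentration for full growth arrest is given as TGI.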

Tests used:
Experiment in all cases: NCI tumour cell line growth inhibition, 48 h
786-0 renal = test system: 786-0 renal
A498 renal = test system: A498 renal
A549 NSCLC = test system: A549 NSCLC
ACHN renal = test system: ACHN renal
CAKI-1 renal = test system: CAKI-1 renal
CCRF-CEM leukemia = test system: CCRF-CEM leukemia
COLO 205 colon = test system: COLO 205 colon
DLD-1 colon = test system: DLD-1 colon
EKVX NSCLC = test system: EKVX NSCLC
HCC-2998 colon = test system: HCC-2998 colon
HCT-116 colon = test system: HCT-116 colon
HCT-15 colon = test system: HCT-15 colon
HL-60(TB) leukemia = test system: HL-60(TB) leukemia
HOP-18 NSCLC = test system: HOP-18 NSCLC
HOP-62 NSCLC = test system: HOP-62 NSCLC
HOP-92 NSCLC = test system: HOP-92 NSCLC
HT29 colon = test system: HT29 colon
IGROV1 ovarian = test system: IGROV1 ovarian
K-562 leukemia = test system: K-562 leukemia
KM12 colon = test system: KM12 colon
KM20L2 colon = test system: KM20L2 colon
LOX IMVI melanoma = test system: LOX IMVI melanoma
LXFL 529 NSCLC = test system: LXFL 529 NSCLC
M14 melanoma = test system: M14 melanoma
M19-MEL melanoma = test system: M19-MEL melanoma
MALME-3M melanoma = test system: MALME-3M melanoma
MOLT-4 leukemia = test system: MOLT-4 leukemia
NCI-H226 lung = test system: NCI-H226 lung
NCI-H23 lung = test system: NCI-H23 lung
NCI-H460 lung = test system: NCI-H460 lung
NCI-H522 lung = test system: NCI-H522 lung
OVCAR-3 ovarian = test system: OVCAR-3 ovarian
OVCAR-4 ovarian = test system: OVCAR-4 ovarian
OVCAR-5 ovarian = test system: OVCAR-5 ovarian
OVCAR-8 ovarian = test system: OVCAR-8 ovarian
RPMI-8226 leukemia = test system: RPMI-8226 leukemia
SF-268 CNS = test system: SF-268 CNS
SF-295 CNS = test system: SF-295 CNS
SF-539 CNS = test system: SF-539 CNS
SK-MEL-2 melanoma = test system: SK-MEL-2 melanoma
SK-MEL-28 melanoma = test system: SK-MEL-28 melanoma
SK-MEL-5 melanoma = test system: SK-MEL-5 melanoma
SK-OV-3 ovarian = test system: SK-OV-3 ovarian
SN12C renal = test system: SN12C renal
SNB-19 CNS = test system: SNB-19 CNS
SNB-75 CNS = test system: SNB-75 CNS
SW-620 colon = test system: SW-620 colon
U251 CNS = test system: U251 CNS
UACC-257 melanoma = test system: UACC-257 melanoma
UACC-62 melanoma = test system: UACC-62 melanoma
UO-31 renal = test system: UO-31 renal

## CC(=O)[CH-]C(=O)c1ccccc1.CC(=O)[CH-]C(=O)c1ccccc1.[O-]c1ccc2c(c1)OCO2.[O-]c1ccc2c(c1)OCO2.[Ti+4]
786-0 renal
  GI50: 21.1 µM
  TGI: 80.7 µM
A498 renal
  GI50: 32.7 µM
  TGI: 64.8 µM
A549 NSCLC
  GI50: 41.7 µM
  TGI: > 100 µM
ACHN renal
  GI50: 31.6 µM
  TGI: > 100 µM
CAKI-1 renal
  GI50: 29.5 µM
  TGI: > 100 µM
CCRF-CEM leukemia
  GI50: 3.66 µM
  TGI: 30.3 µM
COLO 205 colon
  GI50: 32 µM
  TGI: > 100 µM
DLD-1 colon
  GI50: 38.3 µM
  TGI: > 100 µM
EKVX NSCLC
  GI50: 25.8 µM
  TGI: 72.9 µM
HCC-2998 colon
  GI50: 24.6 µM
  TGI: 61.6 µM
HCT-116 colon
  GI50: 37 µM
  TGI: > 100 µM
HCT-15 colon
  GI50: 34.4 µM
  TGI: > 100 µM
HL-60(TB) leukemia
  GI50: 10.7 µM
  TGI: 48 µM
HOP-18 NSCLC
  GI50: 37.7 µM
  TGI: > 100 µM
HOP-62 NSCLC
  GI50: 20.4 µM
  TGI: 93.8 µM
HOP-92 NSCLC
  GI50: 21.1 µM
  TGI: > 100 µM
HT29 colon
  GI50: 26.8 µM
  TGI: > 100 µM
IGROV1 ovarian
  GI50: 34.5 µM
  TGI: > 100 µM
K-562 leukemia
  GI50: 31.5 µM
  TGI: > 100 µM
KM12 colon
  GI50: 16.2 µM
  TGI: 38.2 µM
KM20L2 colon
  GI50: 67.9 µM
  TGI: > 100 µM
LOX IMVI melanoma
  GI50: 18.2 µM
  TGI: 55 µM
LXFL 529 NSCLC
  GI50: 19.3 µM
  TGI: 49.9 µM
M14 melanoma
  GI50: 20.2 µM
  TGI: 44.4 µM
M19-MEL melanoma
  GI50: 21.9 µM
  TGI: 54.5 µM
MALME-3M melanoma
  GI50: 23.1 µM
  TGI: 50.2 µM
MOLT-4 leukemia
  GI50: 15.4 µM
  TGI: 51.5 µM
NCI-H226 lung
  GI50: 24.9 µM
  TGI: 85 µM
NCI-H23 lung
  GI50: 22.4 µM
  TGI: 64.4 µM
NCI-H460 lung
  GI50: 21.1 µM
  TGI: 72.6 µM
NCI-H522 lung
  GI50: 16.5 µM
  TGI: 42.1 µM
OVCAR-3 ovarian
  GI50: 26.8 µM
  TGI: > 100 µM
OVCAR-4 ovarian
  GI50: 31.8 µM
  TGI: > 100 µM
OVCAR-5 ovarian
  GI50: 31.9 µM
  TGI: > 100 µM
OVCAR-8 ovarian
  GI50: 34.4 µM
  TGI: > 100 µM
RPMI-8226 leukemia
  GI50: 18.3 µM
  TGI: 50.9 µM
SF-268 CNS
  GI50: 33.6 µM
  TGI: > 100 µM
SF-295 CNS
  GI50: 30.6 µM
  TGI: > 100 µM
SF-539 CNS
  GI50: 28.4 µM
  TGI: > 100 µM
SK-MEL-2 melanoma
  GI50: 22.5 µM
  TGI: 57.7 µM
SK-MEL-28 melanoma
  GI50: 32.7 µM
  TGI: > 100 µM
SK-MEL-5 melanoma
  GI50: 29.1 µM
  TGI: 78.6 µM
SK-OV-3 ovarian
  GI50: 30.1 µM
  TGI: > 100 µM
SN12C renal
  GI50: 43.9 µM
  TGI: > 100 µM
SNB-19 CNS
  GI50: 20.8 µM
  TGI: 69.7 µM
SNB-75 CNS
  GI50: 19.2 µM
  TGI: 66.1 µM
SW-620 colon
  GI50: 32.1 µM
  TGI: > 100 µM
U251 CNS
  GI50: 22.2 µM
  TGI: > 100 µM
UACC-257 melanoma
  GI50: 44 µM
  TGI: > 100 µM
UACC-62 melanoma
  GI50: 47.5 µM
  TGI: > 100 µM
UO-31 renal
  GI50: 35.9 µM
  TGI: 94.3 µM
